Where two headings read alike, the source gives them in different places.
Experiments:
Assay type in all cases: in vivo
[1] = system: Tetranychus cinnabarinus Nymphs; test: Activity assay of Tetranychus cinnabarinus nymphs (spray on broad bean leaves); conditions: 48 h; for pest or weed control at 0.5 µg/mL: concentration 0.5 mg/L; for pest or weed control at 2 µg/mL: concentration 2 mg/L
How it was run: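 Mortality, judged as no response to gentle touch, was scored 48 h after spraying Tetranychus cinnabarinus nymphs on broad bean leaves (eggs from females removed after 24 h). Test solutions: DMF-dissolved compound, ≤10% DMF, in 1‰ Tween 80; 26±2° C., 70%–80% RH, 16 h light; triplicate, blank control.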

[2] = system: adult Tetranychus cinnabarinus; test: Activity assay of adult Tetranychus cinnabarinus (whole-plant spray on bean seedlings); conditions: 48 h; for pest or weed control at 1.25 µg/mL: concentration 1.25 mg/L
How it was run: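 Whole plants sprayed after adult mite inoculation and initial census, using compound dissolved in DMF and made up with 1‰ Tween 80 water (DMF not above 10%). Mortality derived from survivor counts at 48 h after treatment. Each treatment run in triplicate.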

[3] = system: Eggs of Tetranychus Cinnabarinus; test: Activity assay of eggs of Tetranychus cinnabarinus (spray method, ovicidal); conditions: Tetranychus cinnabarinus; for pest or weed control at 2 µg/mL: concentration 2 mg/L
How it was run: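 Ovicidal spray test: compound dissolved in DMF, diluted with 1‰ Tween 80 (DMF ≤10%), sprayed on eggs laid during 24 h by females on broad bean leaves. Culture at 26±2° C, 70–80% RH, 16 h photoperiod; non-hatched eggs scored as dead when blank control hatched; three repeats.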

[4] = read-out: nymph-killing activity
[5] = read-out: adult mite-killing activity
[6] = concentration 2.5 mg/L, read-out: nymph-killing activity
[7] = concentration 2.5 mg/L, read-out: adult mite-killing activity
[8] = concentration 5 mg/L, spray, non-incubated eggs counted as dead, read-out: ovicidal activity
[9] = nymphs, parallel determination, read-out: Death rate (%)
[10] = adult mites, parallel determination, read-out: Death rate (%)
[11] = spray, read-out: ovicidal activity
[12] = eggs, parallel determination, read-out: Death rate (%)

SMILES | pest or weed control at 2.5 µg/mL [1, 6] | pest or weed control at 2.5 µg/mL [2, 7] | pest or weed control at 5 µg/mL [3, 8] | further results
CCn1nc(C)c(C)c1/C(OCOC(=O)CF)=C(\C#N)c1ccc(C(C)(C)C)cc1 [Compound 387] |  |  |  | pest or weed control at 2.5 µg/mL [1, 4]: ≥ 95%; pest or weed control at 2.5 µg/mL [2, 5]: ≥ 90%; pest or weed control at 5 µg/mL ([3]; read-out: ovicidal activity): ≥ 90%
CCCCC(=O)OCO/C(=C(/C#N)c1ccc(C(C)(C)C)cc1)c1cc(C)nn1C [Compound 6] | ≥ 95% | ≥ 90% | ≥ 90% | 
CC(C)(C)C(=O)OCOC(=C(C#N)c1ccc(C(C)(C)C)cc1)c1ccccc1C(F)(F)F [Compound 8-1, reference compound] | < 80% | < 80% | < 30% | pest or weed control at 0.5 µg/mL [1, 4]: < 30%; pest or weed control at 0.5 µg/mL [1, 9]: 25%; pest or weed control at 1.25 µg/mL [2, 10]: 45%; pest or weed control at 1.25 µg/mL [2, 5]: < 50%; pest or weed control at 2 µg/mL [3, 11]: 0%; pest or weed control at 2 µg/mL [3, 12]: 0%
CCC(=O)OCO/C(=C(/C#N)c1ccc(C(C)(C)C)cc1)c1c(C)c(C)nn1CC [Compound 377] | ≥ 95% | ≥ 90% | ≥ 90% | 
CCCC(=O)OCO/C(=C(/C#N)c1ccc(C(C)(C)C)cc1)c1c(C)c(C)nn1CC [Compound 378] | ≥ 95% | ≥ 90% | ≥ 90% | 
CCn1nc(C)c(Cl)c1/C(OCOC(C)=O)=C(\C#N)c1ccc(C(C)(C)C)cc1 [Compound 301] | ≥ 95% | ≥ 90% | ≥ 90% | pest or weed control at 2 µg/mL [1, 4]: ≥ 90%; pest or weed control at 0.5 µg/mL [1, 9]: 90%; pest or weed control at 1.25 µg/mL [2, 10]: 90%; pest or weed control at 1.25 µg/mL [2, 5]: ≥ 90%; pest or weed control at 2 µg/mL [3, 11]: ≥ 90%; pest or weed control at 2 µg/mL [3, 12]: 95%
CCn1nc(C)c(Cl)c1/C(OC(C)OC(=O)C(C)C)=C(\C#N)c1ccc(C(C)(C)C)cc1 (stereo not drawn) [Compound 329] | ≥ 95% | ≥ 90% | ≥ 90% | 
CCCCC(=O)OCO/C(=C(/C#N)c1ccc(C(C)(C)C)cc1)c1c(Cl)c(C)nn1CC [Compound 306] | ≥ 95% | ≥ 90% | ≥ 90% | 
CCn1nc(C)cc1/C(OCOC(=O)COC)=C(\C#N)c1ccc(C(C)(C)C)cc1 [Compound 233] | ≥ 95% | ≥ 90% | ≥ 90% | 
Cc1cc(/C(OCOC(=O)OCCC(C)C)=C(\C#N)c2ccc(C(C)(C)C)cc2)n(C)n1 [Compound 458] | ≥ 95% | ≥ 90% | ≥ 90% | 
CSCC(=O)OC(C)O/C(=C(/C#N)c1ccc(C(C)(C)C)cc1)c1cc(C)nn1C (stereo not drawn) [Compound 35] | ≥ 95% | ≥ 90% | ≥ 90% | 
CCn1nc(C)cc1/C(OCOC(=O)OCCC(C)C)=C(\C#N)c1ccc(C(C)(C)C)cc1 [Compound 554] | ≥ 95% | ≥ 90% | ≥ 90% | 
CCCCCOC(=O)OCO/C(=C(/C#N)c1ccc(C(C)(C)C)cc1)c1cc(C)nn1CC [Compound 556] | ≥ 95% | ≥ 90% | ≥ 90% | 
CCn1nc(C)c(C)c1/C(OCOC(=O)C1CC1)=C(\C#N)c1ccc(C(C)(C)C)cc1 [Compound 384] | ≥ 95% | ≥ 90% | ≥ 90% | 
CCn1nc(C)cc1/C(OC(C)OC(=O)OCC(C)C)=C(\C#N)c1ccc(C(C)(C)C)cc1 (stereo not drawn) [Compound 585] | ≥ 95% | ≥ 90% | ≥ 90% | pest or weed control at 2 µg/mL [1, 4]: ≥ 90%; pest or weed control at 0.5 µg/mL [1, 9]: 96%; pest or weed control at 1.25 µg/mL [2, 10]: 100%; pest or weed control at 1.25 µg/mL [2, 5]: ≥ 90%; pest or weed control at 2 µg/mL [3, 11]: ≥ 90%; pest or weed control at 2 µg/mL [3, 12]: 100%
CCn1nc(C)c(Cl)c1/C(OC(C)OC(=O)OC)=C(\C#N)c1ccc(C(C)(C)C)cc1 (stereo not drawn) [Compound 771] | ≥ 95% | ≥ 90% | ≥ 90% | pest or weed control at 2 µg/mL [1, 4]: ≥ 90%; pest or weed control at 0.5 µg/mL [1, 9]: 95%; pest or weed control at 1.25 µg/mL [2, 10]: 100%; pest or weed control at 1.25 µg/mL [2, 5]: ≥ 90%; pest or weed control at 2 µg/mL [3, 11]: ≥ 90%; pest or weed control at 2 µg/mL [3, 12]: 100%
Cc1nn(C)c(/C(OCOC(=O)C(F)(F)F)=C(\C#N)c2ccc(C(C)(C)C)cc2)c1Cl [Compound 88] | ≥ 95% | ≥ 90% | ≥ 90% | 
CCn1nc(C)c(C)c1/C(OC(C)OC(C)=O)=C(\C#N)c1ccc(C(C)(C)C)cc1 (stereo not drawn) [Compound 401] | ≥ 95% | ≥ 90% | ≥ 90% | pest or weed control at 2 µg/mL [1, 4]: ≥ 90%; pest or weed control at 1.25 µg/mL [2, 5]: ≥ 90%; pest or weed control at 2 µg/mL [3, 11]: ≥ 90%

SMILES | pest or weed control at 2.5 µg/mL [1, 6] | pest or weed control at 2.5 µg/mL [2, 7] | pest or weed control at 5 µg/mL [3, 8] | further results
CCn1nc(C)c(Cl)c1/C(OC(C)OC(=O)c1ccccc1)=C(\C#N)c1ccc(C(C)(C)C)cc1 (stereo not drawn) [Compound 339] | ≥ 95% | ≥ 90% | ≥ 90% | 
CCCCC(=O)OCO/C(=C(/C#N)c1ccc(C(C)(C)C)cc1)c1cc(C)nn1CC [Compound 231] | ≥ 95% | ≥ 90% | ≥ 90% | 
COCC(=O)OCO/C(=C(/C#N)c1ccc(C(C)(C)C)cc1)c1cc(C)nn1C [Compound 8] | ≥ 95% | ≥ 90% | ≥ 90% | 
CCn1nc(C)c(Cl)c1/C(OC(C)OC(=O)C1CCCCC1)=C(\C#N)c1ccc(C(C)(C)C)cc1 (stereo not drawn) [Compound 336] | ≥ 95% | ≥ 90% | ≥ 90% | 
CCCCC(=O)OC(C)O/C(=C(/C#N)c1ccc(C(C)(C)C)cc1)c1c(Cl)c(C)nn1C (stereo not drawn) [Compound 106] | ≥ 95% | ≥ 90% | ≥ 90% | 
Cc1nn(C)c(/C(OC(C)OC(=O)CC(C)C)=C(\C#N)c2ccc(C(C)(C)C)cc2)c1C (stereo not drawn) [Compound 182] | ≥ 95% | ≥ 90% | ≥ 90% | 
Cc1nn(C)c(/C(OC(C)OC(=O)c2ccccc2)=C(\C#N)c2ccc(C(C)(C)C)cc2)c1C (stereo not drawn) [Compound 189] | ≥ 95% | ≥ 90% | ≥ 90% | 
CCn1nc(C)c(C)c1/C(OC(C)OC(=O)OCC(C)C)=C(\C#N)c1ccc(C(C)(C)C)cc1 (stereo not drawn) [Compound 969] | ≥ 95% | ≥ 90% | ≥ 90% | pest or weed control at 2 µg/mL [1, 4]: ≥ 90%; pest or weed control at 1.25 µg/mL [2, 5]: ≥ 90%; pest or weed control at 2 µg/mL [3, 11]: ≥ 90%
CCn1nc(C)c(C)c1/C(OC(C)OC(=O)COC)=C(\C#N)c1ccc(C(C)(C)C)cc1 (stereo not drawn) [Compound 408] | ≥ 95% | ≥ 90% | ≥ 90% | 
CCCC(=O)OC(C)O/C(=C(/C#N)c1ccc(C(C)(C)C)cc1)c1c(Cl)c(C)nn1C (stereo not drawn) [Compound 103] | ≥ 95% | ≥ 90% | ≥ 90% | 
Cc1cc(/C(OC(C)OC(=O)CC(C)C)=C(\C#N)c2ccc(C(C)(C)C)cc2)n(C)n1 (stereo not drawn) [Compound 32] | ≥ 95% | ≥ 90% | ≥ 90% | 
C=CCOC(=O)OCO/C(=C(/C#N)c1ccc(C(C)(C)C)cc1)c1cc(C)nn1C [Compound 474] | ≥ 95% | ≥ 90% | ≥ 90% | 
Cc1cc(/C(OC(C)OC(=O)C(C)C)=C(\C#N)c2ccc(C(C)(C)C)cc2)n(C)n1 (stereo not drawn) [Compound 29] | ≥ 95% | ≥ 90% | ≥ 90% | 
CSCC(=O)OCO/C(=C(/C#N)c1ccc(C(C)(C)C)cc1)c1c(C)c(C)nn1C [Compound 160] | ≥ 95% | ≥ 90% | ≥ 90% | 
Cc1nn(C)c(/C(OCOC(=O)CC(C)C)=C(\C#N)c2ccc(C(C)(C)C)cc2)c1Cl [Compound 82] | ≥ 95% | ≥ 90% | ≥ 90% | 
CCn1nc(C)c(C)c1/C(OCOC(=O)C(F)(F)F)=C(\C#N)c1ccc(C(C)(C)C)cc1 [Compound 388] | ≥ 95% | ≥ 90% | ≥ 90% | 
CCn1nc(C)c(C)c1/C(OCOC(=O)COC)=C(\C#N)c1ccc(C(C)(C)C)cc1 [Compound 383] | ≥ 95% | ≥ 90% | ≥ 90% | 
CCC(C)(C)C(=O)OCO/C(=C(/C#N)c1ccc(C(C)(C)C)cc1)c1cc(C)nn1C [Compound 16] | ≥ 95% | ≥ 90% | ≥ 90% | 
